Laboratory results as given in patent publication US5658908A (priority 1992, dated 1997).
pIC50: −log10 of the molar value. Entries after “also recorded” stand apart in the source; their conditions may differ.

What was measured:
[1] = molecular target: T1, mouse vas deferens (Mus musculus, UniProt P32300); test: cell-based
T1 construct: Vasa deferentia were removed from mice; from tissue; host or cells: mouse vas deferens

[2] = molecular target: T2, Mu Receptor (Rattus norvegicus, UniProt P33535); test: Mu receptor binding, rat brain membranes; parameters: species or system rat (Sprague-Dawley); conditions: 125I-[D-Ala2,N-MePhe4,Met(O)ol5]enkephalin 0.1 nM, 24° C., 60 min, mean of (n) experiments, read-out: Mu Receptor IC50
T2 construct: Rat (Sprague-Dawley) brain membranes were prepared; from tissue; host or cells: rat (Sprague-Dawley) brain membranes

[3] = test system: guinea pig ileum; test: Inhibition of electrically stimulated contraction of guinea pig ileum; assay type: cell-based; conditions: Cavia porcellus, mean of (n) experiments, read-out: Guinea Pig lleum ED50
[4] = molecular target: delta receptor (Mus musculus, UniProt P32300); test: Delta opioid receptor agonist activity; conditions: in words
[5] = test system: opioid receptor
[6] = Side effects on peripheral administration to rats and mice
[7] = test system: mu receptor; test: Mu opioid receptor agonist activity; conditions: in words
[8] = Analgesia (test not described); assay type: in vivo; conditions: in words

Sequence of delta receptor (P32300 whole entry): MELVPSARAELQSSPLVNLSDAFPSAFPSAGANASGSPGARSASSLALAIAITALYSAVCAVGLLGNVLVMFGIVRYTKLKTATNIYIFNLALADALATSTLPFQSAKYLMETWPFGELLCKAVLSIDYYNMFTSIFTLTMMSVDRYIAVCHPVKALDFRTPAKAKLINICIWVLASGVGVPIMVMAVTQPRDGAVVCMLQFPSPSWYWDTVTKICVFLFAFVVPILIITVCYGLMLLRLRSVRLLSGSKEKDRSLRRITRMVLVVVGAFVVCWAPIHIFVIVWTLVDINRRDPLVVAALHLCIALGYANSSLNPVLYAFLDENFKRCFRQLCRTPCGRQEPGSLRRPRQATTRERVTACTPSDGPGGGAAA
T2 sequence (P33535 whole entry): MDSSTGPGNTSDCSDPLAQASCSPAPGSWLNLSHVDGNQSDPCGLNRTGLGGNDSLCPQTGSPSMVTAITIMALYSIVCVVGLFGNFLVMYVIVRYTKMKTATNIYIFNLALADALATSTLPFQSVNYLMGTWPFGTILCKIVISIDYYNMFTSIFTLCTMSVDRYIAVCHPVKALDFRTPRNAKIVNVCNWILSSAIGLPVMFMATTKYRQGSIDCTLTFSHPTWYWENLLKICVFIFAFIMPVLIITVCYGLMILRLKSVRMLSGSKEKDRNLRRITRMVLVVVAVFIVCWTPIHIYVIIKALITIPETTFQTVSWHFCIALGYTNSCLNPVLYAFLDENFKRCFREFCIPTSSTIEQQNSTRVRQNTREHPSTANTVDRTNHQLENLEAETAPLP
T1 sequence (P32300 whole entry): as the sequence (P32300 whole entry) above

| Structure (SMILES) | Kb [1] [nM] | pIC50 [2] | pIC50 [3] | delta receptor agonist activity [4] | opioid receptor ligand selectivity [5] | side effects when administered peripherally [6] | mu receptor agonist activity [7] | analgesic activity [8] |
| --- | --- | --- | --- | --- | --- | --- | --- | --- |
| CCN(CC)C(=O)c1ccc([C@H](c2cccc(O)c2)N2C[C@@H](C)N(C)C[C@H]2C)cc1 [Example 13, (+)-N,N-diethyl-4-(3-hydroxy-(αR)-α-((2R,5R) -2,4,5-trimethyl-1-piperazinyl)benzyl)benzamide] | 100 | 5.62 | < 5.00 | – | – | – | – | – |
| C=CCN1C[C@H](C)N([C@H](c2cccc(O)c2)c2cc(Br)c(C(=O)N(CC)CC)s2)C[C@H]1C (relative stereo) [Compound B, 5-((αR*)-α-((2S*,5R*)-4-allyl-2,5-dimethyl-1-piperazinyl)-3-hydroxybenzyl)-3-bromo-N,N-diethyl-2-thiophenecarboxamide] | – | – | – | predominantly delta receptor agonist; also recorded: delta-opioid agonist | highly selective opioid receptor ligand species | does not produce evident side effects | – | – |
| C=CCN1C[C@H](C)N([C@@H](c2ccsc2)c2cccc(O)c2)C[C@H]1C (relative stereo) [Compound K] | – | – | – | delta-receptor opiate properties | – | – | significant agonist activity | strong analgesics |
